For 13 molecules, logP results are on record in patent US9499711B2, “Treatment liquid and recording method” (Seiko Epson Corporation, priority 2014, dated 2016).

Structures are written as SMILES.

The first data set in a line: physchem.
Settings: not given
By logP is commonly meant a log measure of how a compound divides between an organic and an aqueous phase. Turning to `CCCCCO` [1-pentanol], the logP came out at 1.4.

Still in this data set, the particulars now being: log P value.
Take `CC(C)(O)CCO` [3-methyl-1,3-butanediol]: the logP was found to be 0.16.
In the case of `CCCOC(C)COC(C)CO` (centres unmarked) [Dipropylene glycol monopropyl ether], the logP came out at 0.87.
The same measure, in the same setting: the value for `CCOCCOCCOCC` [diethylene glycol diethyl ether] was 0.39; that for `CCCCOCCOCCO` [diethylene glycol monobutyl ether] was 0.56; that for `CCCCCCOCCOCCO` [diethylene glycol monohexyl ether] was 1.7.
`CCCCCCOCCO` [ethylene glycol monohexyl ether]: the log partition coefficient (logP) was determined as 1.7.
Still for that read-out and setting: the value for `CCCCOCC(C)O` (centres unmarked) [propylene glycol monobutyl ether] was 1.15; that for `CCOCC(C)O` (centres unmarked) [propylene glycol monoethyl ether] was 0.3; that for `CCCOCC(C)O` (centres unmarked) [propylene glycol monopropyl ether] was 0.62.
Still for that read-out and setting: the value for `CCCCOC(C)COC(C)COC(C)CO` (centres unmarked) [tripropylene glycol monobutyl ether] was 1.34.

The same data set, now with this note: logP value of organic compound.
As to `CCCC(O)C(CC)CO` (centres unmarked) [2-Ethyl-1,3-hexane diol], the lipophilicity (logP) was determined as 1.6.
`CCCOC(C)COC(C)CO` (centres unmarked) [Dipropylene glycol monopropyl ether] displayed a logP of 0.6.
For the molecule `CCOCCOCCOCCO` [Triethylene glycol monoethyl ether], the log partition coefficient (logP) is -2.75.
